Patent US9873702B2, “Heterocyclic compounds as biogenic amine transport modulators” (Southern Research Institute, priority 2014, dated 2018)
Where two headings read alike, the source gives them in different places.

What was measured:
[1] = molecular target: norepinephrine transporter (NET) (Rattus norvegicus, UniProt Q9WTR4); test: Norepinephrine reuptake ([^3H]norepinephrine uptake) inhibition in rat brain synaptosomes; details: for NE Uptake Emax (% I ± SD): maximal inhibition from dose-response fit
Experimental: Freshly removed whole brain minus cerebellum and caudate was homogenized in 10% ice-cold sucrose with 12 strokes of a hand-held Potter-Elvehjem homogenizer followed by centrifugation at 1000×g for 10 minutes. The supernatants were saved on ice and used immediately. Transporter activity at NET was assessed using 10 nM [^3H]norepinephrine. […] Uptake inhibition assays were conducted at 37° C. and were initiated by adding 100 μL of tissue to 900 μL assay buffer containing test drug and [^3H]norepinephrine. Test drugs were diluted in assay buffer containing 1 mg/mL bovine serum albumin. Nonspecific uptake was measured by incubating in the presence of 10 μM indatraline. The reactions were stopped after 10 minutes by rapid vacuum filtration with a cell harvester (BRANDEL) over GF/B filters (Whatman) presoaked in wash buffer maintained at 25° C. (10 mM Tris-HCl, pH 7.4/150 mM NaCl). Filters were rinsed with 6 mL wash buffer and retained tritium was quantified by a MicroBeta liquid scintillation counter (PerkinElmer) after overnight extraction in 0.6 mL of liquid scintillation cocktail (Cytoscint, ICN). The data from three experiments were pooled and fit to a dose-response curve equation (using Kaleidagraph), to yield an Emax and EC50 value.
The data from three experiments were pooled and fit to a dose-response curve equation (using KaleidaGraph; Synergy Software, Reading, Pa.) to yield an Emax and IC50 value.

[2] = molecular target: T1, dopamine transporter (DAT) (Rattus norvegicus, UniProt P23977); test: Dopamine reuptake ([^3H]dopamine uptake) inhibition in rat brain synaptosomes
[3] = molecular target: T1, dopamine transporter (DAT); test: Dopamine transporter-mediated [^3H]MPP^+ release, shift of D-amphetamine-induced release, rat caudate synaptosomes; assay type: biochemical; design: Freshly removed caudate was homogenized in 10% ice-cold sucrose; from tissue; host or cells: rat caudate synaptosomes; details: for Apparent Kc: [3H]MPP+ release, Apparent Kc = [Blocker]/((EC50-2/EC50-1) − 1), negative when shifted EC50 is less than control; for Kb: apparent Ke from shift of D-amphetamine-induced [^3H]MPP^+ release, compound at the concentration of column 1, read-out: Ke App
DAT = molecular target: T2, DAT (Rattus norvegicus, UniProt P23977); test: Dopamine transporter binding, inhibition of [^3H]WIN35428 binding in rat caudate membranes; details: for Emax: 2 h, read-out: DAT Binding εmax; for EC50: read-out: WIN Binding EC50 (μM ± SD)
T2 construct: from tissue; host or cells: rat caudate membranes
Experimental: The ability of test drugs to inhibit [^3H]WIN35428 binding to DAT in rat caudate membranes was assessed as follows. For each experiment, caudates from four rat brains were suspended in 15 mL ice cold assay buffer (50 mM sodium phosphate pH 7.4) and homogenized using a polytron (setting 6, 20 sec). The homogenate was centrifuged at 30,000×g for 10 minutes at 4° C. The pellet was resuspended with vigorous vortexing in 15 mL fresh ice cold assay buffer, and the centrifugation was repeated. The pellet was resuspended in 15 mL fresh ice cold assay buffer with vigorous vortexing followed by six strokes with a glass-on-glass hand-held homogenizer and was diluted to a final volume of 235 mL in ice cold assay buffer. [^3H]WIN35428 was diluted to 10 nM in assay buffer that contained 25 μg/mL chymostatin, 25 μg/mL leupeptin, 0.1 mM EDTA, and 0.1 mM EGTA. Each assay tube contained 0.75 mL membrane preparation, 0.15 mL test drug diluted in assay buffer containing 1 mg/mL bovine serum albumin, and 0.1 mL [^3H]WIN35428 preparation (final concentration of 1 nM). Assays were initiated by the addition of membranes and were terminated after 2 hours at 25° C. by rapid vacuum filtration. Retained tritium was measured as described. The data from three experiments were pooled and fit to a dose-response curve equation (using Kaleidagraph), to yield an Emax and EC50 value.

[4] = molecular target: T3, serotonin transporter (SERT) (Rattus norvegicus, UniProt P31652); test: Serotonin reuptake ([^3H]serotonin uptake) inhibition in rat brain synaptosomes; assay type: biochemical; details: mean ± S.D., n = 3; for Emax: read-out: SERT Uptake Emax; for IC50: read-out: SERT Uptake IC50
T3 construct: Freshly removed whole brain minus cerebellum and caudate was homogenized; from tissue; host or cells: rat whole brain minus cerebellum and caudate, synaptosomes

[5] = rat brain synaptosomes, 10 nM [^3H]norepinephrine
[6] = read-out: NE Uptake EC50 (nM ± SD), rat brain synaptosomes, 10 nM [^3H]norepinephrine, 10 min, 37° C.
[7] = read-out: NET Uptake IC50, mean ± S.D., n = 3
[8] = DAT Uptake IC50, [3H]DA uptake inhibition, mean ± S.D., n = 3
[9] = IC50 for DAT Uptake Inhibition, rounded value as listed in Table 10
[10] = read-out: Emax for DAT Uptake Inhibition
[11] = Emax of D-amphetamine for [^3H]MPP^+ release in presence of 150 nM test compound
[12] = Emax of D-amphetamine for [^3H]MPP^+ release in presence of 500 nM test compound

T1 sequence (P23977 whole entry): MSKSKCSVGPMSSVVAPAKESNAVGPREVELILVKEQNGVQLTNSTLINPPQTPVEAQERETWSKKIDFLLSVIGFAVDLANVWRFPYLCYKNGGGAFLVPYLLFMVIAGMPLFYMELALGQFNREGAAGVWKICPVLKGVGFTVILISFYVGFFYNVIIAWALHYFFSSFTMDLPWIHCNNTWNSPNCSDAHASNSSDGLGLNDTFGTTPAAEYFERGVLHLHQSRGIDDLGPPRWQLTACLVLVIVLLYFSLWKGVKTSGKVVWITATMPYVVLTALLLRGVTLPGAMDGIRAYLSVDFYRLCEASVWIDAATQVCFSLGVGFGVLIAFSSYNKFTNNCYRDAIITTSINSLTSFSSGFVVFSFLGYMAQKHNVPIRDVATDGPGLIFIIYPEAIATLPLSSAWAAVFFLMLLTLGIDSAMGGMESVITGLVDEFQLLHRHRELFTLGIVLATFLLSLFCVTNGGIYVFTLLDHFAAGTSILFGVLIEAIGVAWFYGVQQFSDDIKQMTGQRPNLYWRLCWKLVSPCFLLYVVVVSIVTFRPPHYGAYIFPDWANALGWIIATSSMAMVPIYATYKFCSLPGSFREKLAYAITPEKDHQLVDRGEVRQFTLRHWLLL
T2 sequence (P23977 whole entry): as above
T3 sequence (P31652 whole entry): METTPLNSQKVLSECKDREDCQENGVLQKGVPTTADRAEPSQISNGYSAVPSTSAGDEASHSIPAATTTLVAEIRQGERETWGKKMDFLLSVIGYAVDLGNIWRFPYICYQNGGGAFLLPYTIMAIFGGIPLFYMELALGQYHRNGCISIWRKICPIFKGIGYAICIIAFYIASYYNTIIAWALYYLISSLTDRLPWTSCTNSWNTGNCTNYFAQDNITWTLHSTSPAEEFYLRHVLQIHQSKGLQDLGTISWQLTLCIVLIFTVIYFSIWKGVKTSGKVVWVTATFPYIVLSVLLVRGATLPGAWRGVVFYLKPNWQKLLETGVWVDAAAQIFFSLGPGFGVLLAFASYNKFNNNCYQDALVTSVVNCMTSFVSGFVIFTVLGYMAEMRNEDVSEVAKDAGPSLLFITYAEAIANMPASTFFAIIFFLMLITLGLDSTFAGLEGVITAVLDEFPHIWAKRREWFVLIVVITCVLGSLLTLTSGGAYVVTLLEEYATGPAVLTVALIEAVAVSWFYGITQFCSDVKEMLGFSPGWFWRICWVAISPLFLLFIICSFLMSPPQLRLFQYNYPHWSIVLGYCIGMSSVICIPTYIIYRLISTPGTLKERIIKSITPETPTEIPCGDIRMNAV

| SMILES | NET Uptake Emax ([1]; mean ± S.D., n = 3) [%] | NE Uptake Emax (% I ± SD) [1, 5] [% I] | IC50 [1, 6] [nM] | IC50 [1, 7] [nM] | IC50 [2, 8] [nM] | IC50 [2, 9] [nM] | Emax ([2]; read-out: DAT Uptake Emax) [%] | Emax [2, 10] [%] | Emax [4] [%] | IC50 [4] [nM] | Apparent Kc [3] [nM] | Kb [3] [nM] | Emax (DAT) [%] | other results |
| --- | --- | --- | --- | --- | --- | --- | --- | --- | --- | --- | --- | --- | --- | --- |
| c1ccc(C(CNc2nc(-c3ccc4ncnn4c3)nc3ccccc23)c2ccccc2)cc1 [compound 105, 2-([1,2,4]Triazolo[1,5-A]Pyridin-6-yl)-N-(2,2-Diphenylethyl)Quinazolin-4-Amine] | 40 ± 5 | 40 ± 5 | 86 ± 55 | 86 ± 55 | 8.8 ± 1.1 | 9 | 63 ± 1 | 63 | 35 ± 3 | 13 ± 6 |  |  |  | D-Amphetamine Emax (% ± SD) ([3]; Emax of D-amphetamine for [^3H]MPP^+ release in presence of 250 nM test compound): 105 ± 4%; DAT Binding εmax (DAT; inhibition of [3H]WIN35428 binding, mean ± S.D., n = 3): Inactive |
| c1ccc(C(CNc2nc(-c3cnc4nccn4c3)nc3ccccc23)c2ccncc2)cc1 (centres unmarked) [compound 110, 2-(Imidazo[1,2-A]Pyrimidin-6-yl)-N-(2-Phenyl-2-(Pyridin-4-yl)Ethyl)Quinazolin-4-Amine] | 69 ± 2 | 69 ± 2 | 60 ± 10 | 60 ± 10 | 5.6 ± 0.8 | 6 | 64 ± 1 | 64 | 51 ± 2 | 11 ± 3 | 1200 | 1200 | 25 ± 2 | D-Amphetamine Emax (% ± SD) [3, 11]: 104 ± 5% |
| CN(C)c1ccc(-c2nc(NCC(c3ccccc3)c3ccccc3)c3ccccc3n2)cc1 [SRI-29786] | 68 ± 7 |  |  | 143 ± 61 | 7.1 ± 2.2 | 7 |  | 70 |  | 49 ± 27 | 1940 |  | 100 ± 3 |  |
| c1ccc(C(CCNc2nc(-c3ccc4[nH]ccc4c3)nc3ccccc23)c2ccccc2)cc1 [compound 21, N-(3,3-Diphenylpropyl)-2-(1H-Indol-5-yl)Quinazolin-4-Amine] |  | 77 ± 3 | 346 ± 59 |  |  |  |  |  |  |  |  | 886 |  | D-Amphetamine Emax (% ± SD) [3, 12]: 78 ± 2%; effect on the d-amphetamine Emax value, in words ([3]; d-amphetamine-induced DAT-mediated [^3H]MPP^+ release, blocking concentration ˜25 times IC50 for DAT uptake inhibition): no significant effect; EC50 (DAT): 0.2 µM |
| CN(C)c1ncc(-c2nc(NCCC(c3ccccc3)c3ccccc3)c3ccccc3n2)cn1 [compound 20, N-(3,3-Diphenylpropyl)-2-(2-(Dimethylamino)Pyrimidin-5-yl)Quinazolin-4-Amine] |  | 64 ± 5 | 8130 ± 2270 |  |  |  |  |  |  |  |  | 64600 |  | D-Amphetamine Emax (% ± SD) ([3]; Emax of D-amphetamine for [^3H]MPP^+ release in presence of 12500 nM test compound): 103 ± 2%; EC50 (DAT): 2.2 ± 0.5 µM |
| c1ccc(C(CNc2nc(-c3cnc4nccn4c3)nc3ccccc23)C2CCCCC2)cc1 (centres unmarked) [compound 102, N-(2-Cyclohexyl-2-Phenylethyl)-2-(Imidazo[1,2-A]Pyrimidin-6-yl)Quinazolin-4-Amine] | 70 ± 2 | 70 ± 2 | 95 ± 12 | 95 ± 12 | 6 ± 0.7 | 6 | 70 ± 1 | 70 | 54 ± 1 | 23 ± 3 | 1600 | 1600 | 43 ± 4 | D-Amphetamine Emax (% ± SD) [3, 11]: 104 ± 4% |
| Cc1cc2nccn2cc1-c1nc(NCC(c2ccccc2)c2ccc[nH]2)c2ccccc2n1 (centres unmarked) [compound 140, 2-(7-Methylimidazo[1,2-A]Pyridin-6-yl)-N-(2-Phenyl-2-(1H-Pyrrol-2-yl)Ethyl)Quinazolin-4-Amine] | 70 ± 4 | 70 ± 4 | 11 ± 4 | 11 ± 4 | 1.2 ± 0.1 | 1 | 69 ± 1 | 69 | 54 ± 2 | 3.1 ± 0.7 | 55 |  | 91 ± 7 | D-Amphetamine Emax (% ± SD) ([3]; Emax of D-amphetamine for [^3H]MPP^+ release in presence of 25 nM test compound): 105 ± 3% |
| c1ccc(C(CNc2nc(-c3ccc4nccn4c3)nc3ccccc23)c2ccc[nH]2)cc1 (centres unmarked) [compound 117, 2-(Imidazo[1,2-A]Pyridin-6-yl)-N-(2-Phenyl-2-(1H-Pyrrol-2-yl)Ethyl)Quinazolin-4-Amine] | 81 ± 2 | 81 ± 2 | 88 ± 15 | 88 ± 15 | 6.1 ± 1 | 6 | 64 ± 2 | 64 | 56 ± 2 | 18 ± 4 | 1600 | 1600 | 42 ± 3 | D-Amphetamine Emax (% ± SD) [3, 11]: 105 ± 4% |
| CN(C)c1ncc(-c2nc(NCC(c3ccccc3)c3ccccc3)c3ccccc3n2)cn1 [compound 16, 2-(2-(Dimethylamino)pyrimidin-5-yl)-N-(2,2-diphenylethyl)quinazolin-4-amine] | 73 ± 4 | 73 ± 4 | 181 ± 46 | 181 ± 46 | 20 ± 1 | 20 | 73 ± 1 | 73 | 55 ± 5 | 37 ± 18 | 1820 | 1820 | 76 ± 2 | D-Amphetamine Emax (% ± SD) [3, 12]: 101 ± 3%; EC50 (DAT): 1.7 ± 0.2 µM |
| OC(CNc1nc(-c2cnc3nccn3c2)nc2ccccc12)(c1ccccc1)c1ccccc1 [compound 99, 2-((2-(Imidazo[1,2-A]Pyrimidin-6-yl)Quinazolin-4-yl)Amino)-1,1-Diphenylethanol] | 76 ± 9 | 76 ± 3 | 69 ± 18 | 69 ± 18 | 9.3 ± 1.1 |  | 65 ± 1 |  | 56 ± 1 | 3.9 ± 0.4 |  |  | 34 ± 3 |  |
| Cn1cc2cc(-c3nc(NCC(c4ccccc4)c4ccccc4)c4ccccc4n3)ccc2n1 [compound 66, N-(2,2-Diphenylethyl)-2-(2-Methyl-2H-Indazol-5-yl)Quinazolin-4-Amine] | 71 ± 3 | 71 ± 3 | 229 ± 43 | 229 ± 43 | 19 ± 4 |  | 69 ± 2 |  | 61 ± 2 | 106 ± 19 |  |  | 58 ± 3 |  |
| Cc1cc(NS(C)(=O)=O)ccc1-c1nc(NCC(c2ccccc2)c2ccccc2)c2ccccc2n1 [SRI-30828] | 65 ± 3 |  |  | 144 ± 30 | 8.9 ± 1.6 |  |  |  |  | 20 ± 5 |  |  | 60 ± 7 |  |
| CSc1ncc(-c2nc(NCC(c3ccccc3)c3ccccc3)c3ccccc3n2)cn1 [compound 30, N-(2,2-Diphenylethyl)-2-(2-(Methylthio)Pyrimidin-5-yl)Quinazolin-4-Amine] | 62 ± 3 | 62 ± 3 | 204 ± 47 | 204 ± 47 | 9 ± 1.5 |  | 71 ± 2 |  | 52 ± 3 | 56 ± 21 |  |  | 63 ± 4 |  |
| c1ccc(C(CNc2nc(-c3ccc4nccn4c3)nc3ccccc23)C2CCCCC2)cc1 (centres unmarked) [compound 100, N-(2-Cyclohexyl-2-Phenylethyl)-2-(Imidazo[1,2-A]Pyridin-6-yl)Quinazolin-4-Amine] | 65 ± 4 | 65 ± 4 | 153 ± 55 | 153 ± 55 | 12 ± 2 |  | 72 ± 2 |  | 59 ± 4 | 83 ± 28 |  |  | 50 ± 4 |  |
| CS(=O)(=O)Nc1ccc(-c2nc(NCC(c3ccccc3)c3ccccc3)c3ccccc3n2)c(Cl)c1 [SRI-31043] | 67 ± 2 |  |  | 47 ± 10 | 11 ± 1 |  |  |  |  | 22 ± 5 |  |  | 30 ± 3 |  |
| Cc1cc(NS(C)(=O)=O)ccc1-c1nc(NCC(c2ccccc2)c2ccncc2)c2ccccc2n1 (centres unmarked) [SRI-31039] | 71 ± 3 |  |  | 31 ± 7 | 7.4 ± 2 |  |  |  |  | 8 ± 2.8 |  |  | 72 ± 7 |  |
